Source: patent publication US20100222269A1, “IMPROVED DERIVATIVES OF AMYLIN” (priority 2007, published 2010)
Starred links: 1 amine or outer side, 2 acyl side, 3 side chain; linkers in the order of their positions; H or OH if unused. Positions of bridges follow the written chain, without caps; N, C: chain ends. Residues, ends and D or L forms follow the SMILES beside them. Groups on a side chain read outwards from the residue. *: point of attachment. X1 = O=C(CCCCCCCCCCCCCCCc1nnn[nH]1)NS(=O)(=O)CCCC(=O)*; C20 diacid = O=C(O)CCCCCCCCCCCCCCCCCCC(=O)*; C18 diacid = O=C(O)CCCCCCCCCCCCCCCCC(=O)*; γGlu = O=C(O)[C@H](CCC(=O)[*:2])N[*:1]; AEEA = NCCOCCOCC(=O)O

Target: T1, Amylin 3(a) receptor (human calcitonin receptor (CTa) with RAMP-3) (Homo sapiens, UniProt O60896+P30988)
T1 construct: expressed in transfected cells; host or cells: BHK570 (baby hamster kidney) cells, stably transfected, with CRE-luciferase reporter
Assay: Amylin luciferase assay (CRE-luciferase reporter in BHK Amylin 3(a)//CRE-luc cells)
Type: cell-based
Details: BHK570 cells with human calcitonin receptor (CTa), RAMP-3 and CRE-luciferase reporter; 4 hours incubation; read-out: Potency luciferase assay
From the text: It has previously been published (Poyner D R et al 2002, Pharmacological Reviews 54(2) 233-246) that activation of Amylin receptors (coexpression of Calcitonin receptor and receptor activity modifying peptides RAMPs) by Amylin leads to an increase in the intracellular concentration of cAMP. Consequently, transcription is activated at promotors containing multiple copies of the cAMP response element (CRE). It is thus possible to measure Amylin activity by use of a CRE luciferase reporter gene introduced into BHK cells also expressing an Amylin receptor.
2. Construction of an Amylin 3(a)/CRE-luc Cell Line
A BHK570 cell line stably transfected with the human calcitonin receptor (CTa) and a CRE-responsive luciferase reportergene. The cell line was further transfected with RAMP-3, using standard methods. This turns the Calcitonin receptor into an Amylin 3(a) receptor. Methotrexate, Neomycin, and Hygromycin are selection markers for luciferase, the Calcitonin receptor, and RAMP-3, respectively.
3. Amylin Luciferase Assay
To perform activity assays, BHK Amylin 3(a)//CRE-luc cells were seeded in white 96 well culture plates at a density of about 20.000 cells/well. The cells were in 100 μl growth medium (DMEM with 10% FBS, 1% Pen/Strep, 1 mM Na-pyruvate, 250 nM Methotrexate, 500 μg/ml Neomycin, and 400 μg/ml Hygromycin). After incubation overnight at 37° C. and 5% CO2, the growth medium was replaced by 50 μl/well assay medium (DMEM (without phenol red), Glumamax™, 10% FBS, and 10 mM Hepes, pH 7,4). Further, 50 μl/well of standard or sample in assay buffer were added. After 4 hours incubation at 37° C. and 5% CO2, the assay medium with standard or sample were removed and replaced by 100 μl/well PBS. Further, 100 μl/well LucLite™ was added. The plates were sealed and incubated at room temperature for 30 minutes. Finally, luminescence was measured on a TopCounter (Packard) in SPC (single photon counting) mode.

T1 sequence (O60896 24-148): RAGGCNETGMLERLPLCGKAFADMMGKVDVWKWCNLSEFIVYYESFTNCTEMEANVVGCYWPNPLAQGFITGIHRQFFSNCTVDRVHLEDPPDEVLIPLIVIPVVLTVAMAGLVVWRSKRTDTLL
T1 sequence (P30988 25-474): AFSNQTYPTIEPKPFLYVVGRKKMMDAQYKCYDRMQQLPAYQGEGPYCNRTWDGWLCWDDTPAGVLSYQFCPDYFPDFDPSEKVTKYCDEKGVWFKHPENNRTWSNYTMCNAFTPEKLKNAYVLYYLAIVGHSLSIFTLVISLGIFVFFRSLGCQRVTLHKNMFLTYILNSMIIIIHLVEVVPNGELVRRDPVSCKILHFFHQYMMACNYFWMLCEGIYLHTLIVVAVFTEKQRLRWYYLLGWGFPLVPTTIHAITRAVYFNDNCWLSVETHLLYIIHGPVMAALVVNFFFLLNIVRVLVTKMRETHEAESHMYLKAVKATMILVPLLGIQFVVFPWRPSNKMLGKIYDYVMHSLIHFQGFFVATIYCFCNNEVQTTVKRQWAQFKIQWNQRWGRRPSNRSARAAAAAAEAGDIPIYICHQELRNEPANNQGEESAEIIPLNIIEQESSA

SMILES	EC50 [nM]
CC[C@H](C)[C@H](NC(=O)[C@@H]1CCCN1C(=O)CNC(=O)[C@H](Cc1ccccc1)NC(=O)[C@H](CC(N)=O)NC(=O)[C@H](CC(N)=O)NC(=O)[C@H](CO)NC(=O)[C@H](CO)NC(=O)[C@H](Cc1c[nH]cn1)NC(=O)[C@@H](NC(=O)[C@H](CC(C)C)NC(=O)[C@H](Cc1ccccc1)NC(=O)[C@H](CC(N)=O)NC(=O)[C@H](C)NC(=O)[C@H](CC(C)C)NC(=O)[C@H](CCCNC(=N)N)NC(=O)[C@H](CCC(N)=O)NC(=O)[C@@H](NC(=O)[C@H](C)NC(=O)[C@@H]1CSSC[C@H](NC(=O)[C@H](CCC(=O)O)NC(=O)[C@H](CCCNC(=N)N)NC(=O)[C@H](CCC(=O)O)NC(=O)[C@H](CCC(=O)O)NC(=O)CCCS(=O)(=O)NC(=O)CCCCCCCCCCCCCCCc2nnn[nH]2)C(=O)N[C@@H](CC(N)=O)C(=O)N[C@@H]([C@@H](C)O)C(=O)N[C@@H](C)C(=O)N[C@@H]([C@@H](C)O)C(=O)N1)[C@@H](C)O)C(C)C)C(=O)N[C@@H](CC(C)C)C(=O)N1CCC[C@H]1C(=O)N1CCC[C@H]1C(=O)N[C@H](C(=O)N[C@@H](CC(N)=O)C(=O)N[C@H](C(=O)NCC(=O)N[C@@H](CO)C(=O)N[C@@H](CC(N)=O)C(=O)N[C@H](C(=O)N[C@@H](Cc1ccc(O)cc1)C(N)=O)[C@@H](C)O)C(C)C)[C@@H](C)O [Example 31, N-alpha-[4-(16-1H-tetrazol-5-yl-hexadecanoylsulfamoyl)-butyryl]-Glu-Glu-Arg-[Glu1]pramlintide (1-37)] (X1-EERECNTATCATQRLANFLVHSSNNFGPILPPTNVGSNTY-NH2; disulfide 5-10)	0.09
CC[C@H](C)[C@H](NC(=O)[C@@H]1CCCN1C(=O)CNC(=O)[C@H](Cc1ccccc1)NC(=O)[C@H](CC(N)=O)NC(=O)[C@H](CC(N)=O)NC(=O)[C@H](CO)NC(=O)[C@H](CO)NC(=O)[C@H](Cc1c[nH]cn1)NC(=O)[C@@H](NC(=O)[C@H](CC(C)C)NC(=O)[C@H](Cc1ccccc1)NC(=O)[C@H](CC(N)=O)NC(=O)[C@H](C)NC(=O)[C@H](CC(C)C)NC(=O)[C@H](CCCNC(=N)N)NC(=O)[C@H](CCC(N)=O)NC(=O)[C@@H](NC(=O)[C@H](C)NC(=O)[C@@H]1CSSC[C@H](NC(=O)[C@@H](N)CCCCN)C(=O)N[C@@H](CCCCNC(=O)CCCCCCCCCCCCCCCCC(=O)O)C(=O)N[C@@H]([C@@H](C)O)C(=O)N[C@@H](C)C(=O)N[C@@H]([C@@H](C)O)C(=O)N1)[C@@H](C)O)C(C)C)C(=O)N[C@@H](CC(C)C)C(=O)N1CCC[C@H]1C(=O)N1CCC[C@H]1C(=O)N[C@H](C(=O)N[C@@H](CC(N)=O)C(=O)N[C@H](C(=O)NCC(=O)N[C@@H](CO)C(=O)N[C@@H](CC(N)=O)C(=O)N[C@H](C(=O)N[C@@H](Cc1ccc(O)cc1)C(N)=O)[C@@H](C)O)C(C)C)[C@@H](C)O [Example 2, N-epsilon3-(17-carboxyheptadecanoyl)-[Lys3]-pramlintide (1-37)] (H-KCK(C18 diacid)TATCATQRLANFLVHSSNNFGPILPPTNVGSNTY-NH2; disulfide 2-7; N-terminus and C-terminus assumed)	0.05
CC[C@H](C)[C@H](NC(=O)[C@@H]1CCCN1C(=O)CNC(=O)[C@H](Cc1ccccc1)NC(=O)[C@H](CC(N)=O)NC(=O)[C@H](CC(N)=O)NC(=O)[C@H](CO)NC(=O)[C@H](CO)NC(=O)[C@H](Cc1c[nH]cn1)NC(=O)[C@@H](NC(=O)[C@H](CC(C)C)NC(=O)[C@H](Cc1ccccc1)NC(=O)[C@H](CC(N)=O)NC(=O)[C@H](C)NC(=O)[C@H](CC(C)C)NC(=O)[C@H](CCCNC(=N)N)NC(=O)[C@H](CCC(N)=O)NC(=O)[C@@H](NC(=O)[C@H](C)NC(=O)[C@@H]1CSSC[C@H](NC(=O)[C@@H](N)CCCCN)C(=O)N[C@@H](CCCCNC(=O)COCCOCCNC(=O)COCCOCCNC(=O)CCCCCCCCCCCCCCCCC(=O)O)C(=O)N[C@@H]([C@@H](C)O)C(=O)N[C@@H](C)C(=O)N[C@@H]([C@@H](C)O)C(=O)N1)[C@@H](C)O)C(C)C)C(=O)N[C@@H](CC(C)C)C(=O)N1CCC[C@H]1C(=O)N1CCC[C@H]1C(=O)N[C@H](C(=O)N[C@@H](CC(N)=O)C(=O)N[C@H](C(=O)NCC(=O)N[C@@H](CO)C(=O)N[C@@H](CC(N)=O)C(=O)N[C@H](C(=O)N[C@@H](Cc1ccc(O)cc1)C(N)=O)[C@@H](C)O)C(C)C)[C@@H](C)O [Example 3, N-epsilon3-(2-{2-[2-(2-{2-[2-(17-carboxyheptadecanoylamino)ethoxy]ethoxy}acetylamino)ethoxy]ethoxy}acetyl)-[Lys3]-pramlintide (1-37)] (H-KCK([AEEA-AEEA-C18 diacid])TATCATQRLANFLVHSSNNFGPILPPTNVGSNTY-NH2; disulfide 2-7)	0.1
CC[C@H](C)[C@H](NC(=O)[C@@H]1CCCN1C(=O)CNC(=O)[C@H](Cc1ccccc1)NC(=O)[C@H](CC(N)=O)NC(=O)[C@H](CC(N)=O)NC(=O)[C@H](CO)NC(=O)[C@H](CO)NC(=O)[C@H](Cc1c[nH]cn1)NC(=O)[C@@H](NC(=O)[C@H](CC(C)C)NC(=O)[C@H](Cc1ccccc1)NC(=O)[C@H](CC(N)=O)NC(=O)[C@H](C)NC(=O)[C@H](CC(C)C)NC(=O)[C@H](CCCNC(=N)N)NC(=O)[C@H](CCC(N)=O)NC(=O)[C@@H](NC(=O)[C@H](C)NC(=O)[C@@H]1CSSC[C@H](NC(=O)[C@H](CCC(=O)O)NC(=O)[C@H](CCCNC(=N)N)NC(=O)[C@H](CCC(=O)O)NC(=O)[C@H](CCC(=O)O)NC(=O)CCCCCCCCCCCCCCCCC(=O)O)C(=O)N[C@@H](CC(N)=O)C(=O)N[C@@H]([C@@H](C)O)C(=O)N[C@@H](C)C(=O)N[C@@H]([C@@H](C)O)C(=O)N1)[C@@H](C)O)C(C)C)C(=O)N[C@@H](CC(C)C)C(=O)N1CCC[C@H]1C(=O)N1CCC[C@H]1C(=O)N[C@H](C(=O)N[C@@H](CC(N)=O)C(=O)N[C@H](C(=O)NCC(=O)N[C@@H](CO)C(=O)N[C@@H](CC(N)=O)C(=O)N[C@H](C(=O)N[C@@H](Cc1ccc(O)cc1)C(N)=O)[C@@H](C)O)C(C)C)[C@@H](C)O [Example 41, N-alpha-(17-carboxyheptadecanoyl)-Glu-Glu-Arg-[Glu1]pramlintide (1-37)] ({C18 diacid}-EERECNTATCATQRLANFLVHSSNNFGPILPPTNVGSNTY-NH2; disulfide 5-10; C-terminus assumed)	0.06
CC[C@H](C)[C@H](NC(=O)[C@@H]1CCCN1C(=O)CNC(=O)[C@H](Cc1ccccc1)NC(=O)[C@H](CC(N)=O)NC(=O)[C@H](CC(N)=O)NC(=O)[C@H](CO)NC(=O)[C@H](CO)NC(=O)[C@H](Cc1c[nH]cn1)NC(=O)[C@@H](NC(=O)[C@H](CC(C)C)NC(=O)[C@H](Cc1ccccc1)NC(=O)[C@H](CC(N)=O)NC(=O)[C@H](C)NC(=O)[C@H](CC(C)C)NC(=O)[C@H](CCCNC(=N)N)NC(=O)[C@H](CCC(N)=O)NC(=O)[C@@H](NC(=O)[C@H](C)NC(=O)[C@@H]1CSSC[C@H](NC(=O)[C@H](CCCNC(=N)N)NC(=O)[C@H](CCCNC(=N)N)NC(=O)CC[C@H](NC(=O)CCCCCCCCCCCCCCCCCCC(=O)O)C(=O)O)C(=O)N[C@@H](CC(N)=O)C(=O)N[C@@H]([C@@H](C)O)C(=O)N[C@@H](C)C(=O)N[C@@H]([C@@H](C)O)C(=O)N1)[C@@H](C)O)C(C)C)C(=O)N[C@@H](CC(C)C)C(=O)N1CCC[C@H]1C(=O)N1CCC[C@H]1C(=O)N[C@H](C(=O)N[C@@H](CC(N)=O)C(=O)N[C@H](C(=O)NCC(=O)N[C@@H](CO)C(=O)N[C@@H](CC(N)=O)C(=O)N[C@H](C(=O)N[C@@H](Cc1ccc(O)cc1)C(N)=O)[C@@H](C)O)C(C)C)[C@@H](C)O [Example 47, N-alpha-[(S)-4-carboxy-4-(19-carboxynonadecanoylamino)butyryl]-Arg-[Arg1]-pramlintide (1-37)] ({C20 diacid-γGlu}-RRCNTATCATQRLANFLVHSSNNFGPILPPTNVGSNTY-NH2; disulfide 3-8; C-terminus assumed)	0.1
